# In US6645918B1, “N-([1,2,4]triazoloazinyl)thiophenesulfonamide compounds and their use as herbicides” (Dow AgroSciences LLC, priority 2000, dated 2003):
# Columns and labels:
# Assay type in all cases: in vivo
# [1] = test system: velvetleaf (Abutilion theophrasti); assay: Postemergence herbicidal activity, velvetleaf; conditions: foliar spray, visual after 2 weeks, 0 no injury, 100 complete kill
# Procedure: (§1) Seeds of the desired test plant species were planted in Grace-Sierra MetroMix® 306 planting mixture, which typically has a pH of 6.0 to 6.8 and an organic matter content of about 30 percent, in plastic pots with a surface area of 64 square centimeters. When required to ensure good germination and healthy plants, a fungicide treatment and/or other chemical or physical treatment was applied. The plants were grown for 7-21 days in a greenhouse with an approximately 15 hr photoperiod which was maintained at about 23-29° C. during the day and 22-28° C. during the night. Nutrients and water were added on a regular basis and supplemental lighting was provided with overhead metal halide 1000 Watt lamps as necessary. The plants were employed for testing when they reached the first or second true leaf stage. A weighed amount of each test compound, determined by the highest rate to be tested, was placed in a 20 mL glass vial and was dissolved in 4 mL of a 97:3 v/v (volume/volume) mixture of acetone and dimethyl sulfoxide to obtain concentrated stock solutions. […] The concentrated stock solutions obtained were diluted with an aqueous mixture containing acetone, water, iso-propyl alcohol, dimethyl sulfoxide, Atplus 411F crop oil concentrate, and Triton X-155 surfactant (methylenebisdiamyl phenoxy polyethoxy ethanol) in a 48.5:39:10:1.5:1.0:0.02 v/v ratio to obtain spray solutions of known concentration. The solutions containing the highest concentration to be tested were prepared by diluting 2 mL aliquots of the stock solution with 13 mL of the mixture and lower concentrations were prepared by dilution of appropriate smaller portions of the stock solution. Approximately 1.5 mL aliquots of each solution of known concentration were sprayed evenly onto each of the test plant pots using a DeVilbiss atomizer driven by compressed air pressure of 2 to 4 psi (140 to 280 kilopascals) to obtain thorough coverage of each plant. Control plants were sprayed in the same manner with the aqueous mixture. In this test an application rate of 1 ppm results in the application of approximately 1 g/ha. The treated plants and control plants were placed in a greenhouse as described above and watered by sub-irrigation to prevent wash-off of the test compounds. After 2 weeks the condition of the test plants as compared with that of the untreated plants was determined visually and scored on a scale of 0 to 100 percent where 0 corresponds to no injury and 100 corresponds to complete kill.
# [2] = test system: crabgrass (Digitaria sanguinalis); assay: Preemergence herbicidal activity, crabgrass; conditions: soil spray, visual after 3 weeks, 0 no injury, 100 complete kill or no germination
# Procedure: (§2) The soil matrix was contained in plastic pots with a surface area of 161 square centimeters. When required to ensure good germination and healthy plants, a fungicide treatment and/or other chemical or physical treatment was applied. A weighed amount, determined by the highest rate to be tested, of each test compound was placed in a 20 mL glass vial and was dissolved in 8 mL of a 97:3 v/v (volume/volume) mixture of acetone and dimethyl sulfoxide to obtain concentrated stock solutions. […] The stock solutions obtained were diluted with a 99.9:0.1 mixture of water and Tween® 155 surfactant (ethoxylated sorbitan fatty acid ester) to obtain application solutions of known concentration. The solutions containing the highest concentration to be tested were prepared by diluting 4 mL aliquots of the stock solution with 8.5 mL of the mixture and lower concentrations were prepared by dilution of appropriate smaller portions of the stock solution. A 2.5 mL aliquot of each solution of known concentration was sprayed evenly onto the soil of each seeded pot using a Cornwall 5.0 mL glass syringe fitted with a TeeJet TN-3 hollow cone nozzle to obtain thorough coverage of the soil in each pot. Control pots were sprayed in the same manner with the aqueous mixture. A highest application rate of 4.48 kg/ha is achieved when 50 mg of test compound is employed. The treated pots and control pots were placed in a greenhouse with an approximately 15 hr photoperiod which was maintained at about 23-29° C. during the day and 22-28° C. during the night. Nutrients and water were added on a regular basis and supplemental lighting was provided with overhead metal halide 1000 Watt lamps as necessary. The water was added by top-irrigation. After 3 weeks the condition of the test plants that germinated and grew as compared with that of the untreated plants that germinated and grew was determined visually and scored on a scale of 0 to 100 percent where 0 corresponds to no injury and 100 corresponds to complete kill or no germination.
# [3] = test system: wild poinsettia (Euphorbia heterophylla); assay: Preemergence herbicidal activity, wild poinsettia; conditions: soil spray, visual after 3 weeks, 0 no injury, 100 complete kill or no germination
# Procedure: as §2
# [4] = test system: Rox orange sorghum (Sorghum bicolor); assay: Preemergence herbicidal activity, Rox orange sorghum; conditions: soil spray, visual after 3 weeks, 0 no injury, 100 complete kill or no germination
# Procedure: as §2
# [5] = test system: giant foxtail (Setaria faberi); assay: Preemergence herbicidal activity, giant foxtail; conditions: soil spray, visual after 3 weeks, 0 no injury, 100 complete kill or no germination
# Procedure: as §2
# [6] = test system: blackgrass (Alopecurus myosuroides); assay: Postemergence herbicidal activity, blackgrass; conditions: foliar spray, visual after 2 weeks, 0 no injury, 100 complete kill
# Procedure: as §1
# [7] = test system: barnyardgrass (Echinochloa crus-galli); assay: Preemergence herbicidal activity, barnyardgrass; conditions: soil spray, visual after 3 weeks, 0 no injury, 100 complete kill or no germination
# Procedure: as §2
# [8] = test system: cocklebur (Xanthium strumarium); assay: Postemergence herbicidal activity, cocklebur; conditions: foliar spray, visual after 2 weeks, 0 no injury, 100 complete kill
# Procedure: as §1
# [9] = test system: Rox orange sorghum (Sorghum bicolor); assay: Postemergence herbicidal activity, Rox orange sorghum; conditions: foliar spray, visual after 2 weeks, 0 no injury, 100 complete kill
# Procedure: as §1
# [10] = test system: morningglory (Ipomoea hederacea); assay: Postemergence herbicidal activity, morningglory; conditions: foliar spray, visual after 2 weeks, 0 no injury, 100 complete kill
# Procedure: as §1
# wild oats (Avena fatua) [11] = assay: Postemergence herbicidal activity, wild oats; conditions: foliar spray, visual after 2 weeks, 0 no injury, 100 complete kill
# Procedure: as §1
# wild oats (Avena fatua) [12] = assay: Preemergence herbicidal activity, wild oats; conditions: soil spray, visual after 3 weeks, 0 no injury, 100 complete kill or no germination
# Procedure: as §2
# [13] = test system: chickweed (Stellaria media); assay: Postemergence herbicidal activity, chickweed; conditions: foliar spray, visual after 2 weeks, 0 no injury, 100 complete kill
# Procedure: as §1
# [14] = test system: velvetleaf (Abutilion theophrasti); assay: Preemergence herbicidal activity, velvetleaf; conditions: soil spray, visual after 3 weeks, 0 no injury, 100 complete kill or no germination
# Procedure: as §2
# [15] = test system: blackgrass (Alopecurus myosuroides); assay: Preemergence herbicidal activity, blackgrass; conditions: soil spray, visual after 3 weeks, 0 no injury, 100 complete kill or no germination
# Procedure: as §2
# [16] = test system: cocklebur (Xanthium strumarium); assay: Preemergence herbicidal activity, cocklebur; conditions: soil spray, visual after 3 weeks, 0 no injury, 100 complete kill or no germination
# Procedure: as §2
# [17] = test system: giant foxtail (Setaria faberi); assay: Postemergence herbicidal activity, giant foxtail; conditions: foliar spray, visual after 2 weeks, 0 no injury, 100 complete kill
# Procedure: as §1
# viola (Viola tricolor) = assay: Postemergence herbicidal activity, viola; conditions: foliar spray, visual after 2 weeks, 0 no injury, 100 complete kill
# Procedure: as §1
# [18] = test system: lambsquarters (Chenopodium album); assay: Postemergence herbicidal activity, lambsquarters; conditions: foliar spray, visual after 2 weeks, 0 no injury, 100 complete kill
# Procedure: as §1
# [19] = test system: pigweed (Amaranthus retroflexus); assay: Preemergence herbicidal activity, pigweed; conditions: soil spray, visual after 3 weeks, 0 no injury, 100 complete kill or no germination
# Procedure: as §2
# [20] = test system: morningglory (Ipomoea hederacea); assay: Preemergence herbicidal activity, morningglory; conditions: soil spray, visual after 3 weeks, 0 no injury, 100 complete kill or no germination
# Procedure: as §2
# [21] = test system: lambsquarters (Chenopodium album); assay: Preemergence herbicidal activity, lambsquarters; conditions: 8.8 g/Ha, soil spray, visual after 3 weeks; 0 no injury, 100 complete kill or no germination
# Procedure: as §2
structure (smiles),measurement,setting,value
"COc1cscc1S(=O)(=O)Nc1nc2c(OC)cnc(OC)n2n1 [Compound 7, N-(5,8-dimethoxy[1,2,4]triazolo[1,5-c]pyrimidin-2-yl)-4-methoxythiophene-3-sulfonamide]",ABUTH postemergence injury score 0-100,[1]; 1.9 ppm,80%
same,DIGSA preemergence injury score 0-100,[2]; 4.4 g/Ha,100%
same,EPHHL preemergence injury score 0-100,[3]; 4.4 g/Ha,85%
same,SORBI preemergence injury score 0-100,[4]; 4.4 g/Ha,100%
same,SETFA preemergence injury score 0-100,[5]; 4.4 g/Ha,100%
same,ALOMY postemergence injury score 0-100,[6]; 1.9 ppm,98%
same,ECHCG preemergence injury score 0-100,[7]; 4.4 g/Ha,99%
same,XANST postemergence injury score 0-100,[8]; 1.9 ppm,80%
same,SORBI postemergence injury score 0-100,[9]; 1.9 ppm,98%
same,IPOHE postemergence injury score 0-100,[10]; 1.9 ppm,80%
same,AVEFA postemergence injury score 0-100,wild oats (Avena fatua) [11]; 1.9 ppm,98%
same,AVEFA preemergence injury score 0-100,wild oats (Avena fatua) [12]; 4.4 g/Ha,100%
same,STEME postemergence injury score 0-100,[13]; 1.9 ppm,98%
same,ABUTH preemergence injury score 0-100,[14]; 4.4 g/Ha,95%
same,ALOMY preemergence injury score 0-100,[15]; 4.4 g/Ha,100%
same,XANST preemergence injury score 0-100,[16]; 4.4 g/Ha,80%
same,SETFA postemergence injury score 0-100,[17]; 1.9 ppm,100%
same,VIOTR postemergence injury score 0-100,viola (Viola tricolor); 1.9 ppm,80%
same,CHEAL postemergence injury score 0-100,[18]; 1.9 ppm,60%
same,AMARE preemergence injury score 0-100,[19]; 4.4 g/Ha,95%
same,IPOHE preemergence injury score 0-100,[20]; 4.4 g/Ha,85%
COc1sccc1S(=O)(=O)Nc1nc2c(OC)cnc(OC)n2n1 [Compound 8],ABUTH postemergence injury score 0-100,[1]; 7.8 ppm,75%
same,DIGSA preemergence injury score 0-100,[2]; 8.8 g/Ha,50%
same,EPHHL preemergence injury score 0-100,[3]; 8.8 g/Ha,85%
same,SORBI preemergence injury score 0-100,[4]; 8.8 g/Ha,70%
same,SETFA preemergence injury score 0-100,[5]; 8.8 g/Ha,60%
same,ALOMY postemergence injury score 0-100,[6]; 7.8 ppm,50%
same,ECHCG preemergence injury score 0-100,[7]; 8.8 g/Ha,25%
same,XANST postemergence injury score 0-100,[8]; 7.8 ppm,60%
same,SORBI postemergence injury score 0-100,[9]; 7.8 ppm,95%
same,IPOHE postemergence injury score 0-100,[10]; 7.8 ppm,60%
same,AVEFA postemergence injury score 0-100,wild oats (Avena fatua) [11]; 7.8 ppm,85%
same,AVEFA preemergence injury score 0-100,wild oats (Avena fatua) [12]; 8.8 g/Ha,80%
same,STEME postemergence injury score 0-100,[13]; 7.8 ppm,95%
same,ABUTH preemergence injury score 0-100,[14]; 8.8 g/Ha,70%
same,ALOMY preemergence injury score 0-100,[15]; 8.8 g/Ha,85%
same,CHEAL preemergence injury score 0-100,[21],70%
same,XANST preemergence injury score 0-100,[16]; 8.8 g/Ha,80%
same,SETFA postemergence injury score 0-100,[17]; 7.8 ppm,60%
same,VIOTR postemergence injury score 0-100,viola (Viola tricolor); 7.8 ppm,75%
same,CHEAL postemergence injury score 0-100,[18]; 7.8 ppm,70%
same,AMARE preemergence injury score 0-100,[19]; 8.8 g/Ha,80%
same,IPOHE preemergence injury score 0-100,[20]; 8.8 g/Ha,75%
COc1sccc1S(=O)(=O)Nc1nc2c(C)cnc(OC)n2n1 [Compound 9],ABUTH postemergence injury score 0-100,[1]; 62 ppm,70%
same,DIGSA preemergence injury score 0-100,[2]; 70 g/Ha,10%
same,EPHHL preemergence injury score 0-100,[3]; 70 g/Ha,10%
same,SORBI preemergence injury score 0-100,[4]; 70 g/Ha,50%
same,SETFA preemergence injury score 0-100,[5]; 70 g/Ha,15%
same,ALOMY postemergence injury score 0-100,[6]; 62 ppm,60%
same,ECHCG preemergence injury score 0-100,[7]; 70 g/Ha,0%
same,XANST postemergence injury score 0-100,[8]; 62 ppm,60%
same,SORBI postemergence injury score 0-100,[9]; 62 ppm,70%
same,IPOHE postemergence injury score 0-100,[10]; 62 ppm,70%
same,AVEFA postemergence injury score 0-100,wild oats (Avena fatua) [11]; 62 ppm,10%
same,AVEFA preemergence injury score 0-100,wild oats (Avena fatua) [12]; 70 g/Ha,30%
same,STEME postemergence injury score 0-100,[13]; 62 ppm,95%
same,ABUTH preemergence injury score 0-100,[14]; 70 g/Ha,30%
same,ALOMY preemergence injury score 0-100,[15]; 70 g/Ha,100%
same,XANST preemergence injury score 0-100,[16]; 70 g/Ha,25%
same,SETFA postemergence injury score 0-100,[17]; 62 ppm,20%
same,VIOTR postemergence injury score 0-100,viola (Viola tricolor); 62 ppm,60%
same,CHEAL postemergence injury score 0-100,[18]; 62 ppm,40%
same,AMARE preemergence injury score 0-100,[19]; 70 g/Ha,40%
same,IPOHE preemergence injury score 0-100,[20]; 70 g/Ha,10%
